Among the data in ChEMBL document CHEMBL5120868, “Tuaimenal A, a Meroterpene from the Irish Deep-Sea Soft Coral Duva florida, Displays Inhibition of the SARS-CoV-2 3CLpro Enzyme” (J Nat Prod, 2022) are inhibition and IC50 values, retold here.

Assay [1] concerns the target Replicase polyprotein 1ab (Severe acute respiratory syndrome coronavirus 2) (UniProt P0DTD1). As to the kind of experiment: Inhibition of recombinant SARS-CoV-2 3CLpro expressed in Escherichia coli BL21 at 20 uM using LGSAVLQ-rhodamine 110-dp as fluorogenic substrate preincubated for 15 mins followed by substrate addition by spectrophotometry analysis relative to control.

The target of assay [2] is Replicase polyprotein 1ab (Severe acute respiratory syndrome coronavirus 2, UniProt P0DTD1). The assay can be described thus: Inhibition of recombinant SARS-CoV-2 3CLpro expressed in Escherichia coli BL21 using LGSAVLQ-rhodamine 110-dp as fluorogenic substrate preincubated for 15 mins followed by substrate addition by spectrophotometry analysis.
The target of assay [3] is Replicase polyprotein 1ab (Severe acute respiratory syndrome coronavirus 2) (UniProt P0DTD1). As to the kind of experiment: Inhibition of recombinant SARS-CoV-2 3CLpro expressed in Escherichia coli BL21 at […] using LGSAVLQ-rhodamine 110-dp as fluorogenic substrate preincubated for 15 mins followed by substrate addition by spectrophotometry analysis relative to control.

On to `CC(C)=CCC/C(C)=C/CC[C@]1(C)C=Cc2c(C=O)c(O)c(C)c(O)c2O1`, for which the inhibition in assay [1] was 40%. The IC50 in assay [2] amounted to 21 µM.

Take `NCCc1ccc(S(=O)(=O)F)cc1`: the inhibition in assay [3] stood at 100%.

By inhibition is commonly meant the drop in the measured response relative to a control, in per cent. Usually IC50 stands for the concentration that gives 50% inhibition.
